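Values below derive from 48-hour exposures of cells grown in 96-well plates, with endpoints linearly interpolated between the two concentrations bracketing the appropriate inhibition level. TGI marks complete inhibition of growth.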
Experiments:
Assay in all cases: DTP human tumour cell line panel, 48 h
[1] = system: HS 578T breast
[2] = system: M14 melanoma
[3] = system: MDA-MB-435
[4] = system: MDA-N
[5] = system: NCI-H522 lung
[6] = system: RPMI-8226 leukemia
[7] = system: RXF 393 renal
[8] = system: U251 CNS
[9] = system: UACC-62 melanoma
[10] = system: UO-31 renal

Compound | TGI [1] [µM] | TGI [2] [µM] | TGI [3] [µM] | TGI [4] [µM] | TGI [5] [µM] | TGI [6] [µM] | TGI [7] [µM] | TGI [8] [µM] | TGI [9] [µM] | TGI [10] [µM]
CC(C)C(C=O)C(O)(C(F)(F)F)C(F)(F)F (stereo not given) | > 100 | > 100 | > 100 | > 100 | > 100 | > 100 | > 100 | > 100 | > 100 | > 100
O=C(NC1CCCCC1)N1CCNC1=S | > 100 | > 100 | > 100 | > 100 | > 100 | > 100 | > 100 | – | – | > 100
CN1CN(c2ccccc2)C2(CCN(C(=O)OC(C)(C)C)CC2)C1=O | > 100 | > 100 | > 100 | > 100 | > 100 | > 100 | > 100 | > 100 | > 100 | > 100
COc1ccc2cc(CNCCOCCOCCNCc3ccc4cc(OC)ccc4c3)ccc2c1 | 3.46 | 0.687 | 1.21 | 2.35 | 3.49 | 2.03 | 3.18 | 8.46 | 3.38 | 2.61
COc1ccc2nc3c(nc2c1)C(C)(C)C=C3c1ccc(Br)cc1 | > 100 | > 100 | > 100 | > 100 | > 100 | > 100 | > 100 | > 100 | – | –
Nc1nc(Cl)cc(Oc2ccc(Cl)cc2)n1 | > 100 | > 100 | > 100 | > 100 | > 72.8 | > 100 | > 100 | > 100 | > 100 | > 100
C=c1c2ccccc2oc2nc3[nH]c(N)c(C#N)c(N)c3c(=N)c12 | 86.2 | > 100 | > 100 | > 100 | – | > 100 | > 100 | > 100 | > 100 | > 100
O=C(O)C(=Cc1ccc(-c2ccc([N+](=O)[O-])cc2)o1)C(=O)O | > 100 | > 100 | > 100 | > 100 | > 100 | > 100 | > 100 | > 100 | > 100 | > 100
Cn1c(SCc2ccc([N+](=O)[O-])cc2)nnc1C12CC3CC(CC(C3)C1)C2 | > 10 | > 10 | > 10 | > 10 | > 10 | > 10 | > 10 | > 10 | > 10 | > 10
COc1c(C(=O)CC2c3c(cc4oc(C)cc(=O)c4c3OC)OC(=N)C2c2nc3ccccc3[nH]2)c(O)c(OC)c2occc12 (stereo not given) | > 100 | > 100 | > 100 | > 100 | > 100 | > 100 | > 100 | > 100 | > 100 | > 100
CC(C)(C)c1ccc(OCCOc2ccc(C(C)(C)C)cc2NC=O)c(NC=O)c1 | 42.8 | 20.7 | 26.9 | 27.3 | 24.4 | 13.6 | 28.2 | 34.7 | 28.1 | 30.9

From PubChem BioAssay (NCI)
